Reference: ChEMBL document CHEMBL1201862, “PubChem BioAssay data set” (2004)
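Exposure lasted 48 hours, with cells grown in 96-well plates and compounds tested at five concentrations. At the GI50, growth is halved.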 Calls of active or inactive are those of the source. Rule as the data show it: active = GI50 up to about 1.1 µM and inactive = higher.

What was measured:
Test in all cases: growth of human tumour cells (NCI), 48 h
[1] = system: OVCAR-4
[2] = system: CAKI-1
[3] = system: SNB-75
[4] = system: SF-539
[5] = system: A498
[6] = system: SN12C
[7] = system: SK-OV-3
[8] = system: SR
[9] = system: HCT-15
[10] = system: UACC-257
[11] = system: ACHN
[12] = system: SF-295
[13] = system: OVCAR-5
[14] = system: OVCAR-8
[15] = system: HOP-62
[16] = system: PC-3
[17] = system: MDA-MB-435
[18] = system: Hs-578T
[19] = system: MDA-MB-231

Measured: GI50

O=S(=O)(O)SC/C=C\CSS(=O)(=O)O
inactive: [1] > 100 µM | [2] > 100 µM | [3] > 100 µM | [4] > 100 µM | [5] > 100 µM | [6] > 100 µM | [7] > 100 µM | [8] > 100 µM | [10] > 100 µM | [11] > 100 µM | [12] > 100 µM | [13] > 100 µM | [14] > 100 µM | [15] > 100 µM
65.8 µM: [9]

O=c1/c(=C/c2ccc3c(c2)OCO3)sc2nnc(Cc3ccccc3)n12
> 100 µM: [9]
inactive: [1] > 100 µM | [2] > 100 µM | [3] 61.1 µM | [4] > 100 µM | [5] > 100 µM | [6] > 100 µM | [7] > 100 µM | [10] 13.1 µM | [11] > 100 µM | [12] > 100 µM | [13] > 100 µM | [14] > 100 µM | [15] > 100 µM

CCOc1ccc(N2C(=O)C3c4[nH]c5ccccc5c4C4CCC(C(C)(C)C)CC4C3C2=O)cc1 (stereo not given)
inactive: [1] > 100 µM | [3] > 100 µM | [4] > 100 µM | [5] > 100 µM | [6] 51.3 µM | [7] > 100 µM | [8] 42.8 µM | [10] > 100 µM | [11] 57.5 µM | [12] > 100 µM | [14] 97.1 µM | [15] > 100 µM
> 100 µM: [9]

O=c1ccc2ccc(O)c3c4c(O)ccc5ccc(=O)c(c1c23)c54
1.26 µM: [9]
inactive: [4] 1.69 µM | [6] 2.08 µM | [7] 4.02 µM | [10] 1.49 µM | [11] 2.69 µM | [12] 2.69 µM | [14] 1.46 µM | [15] 2.72 µM

C=C[C@@H](C)[C@]1(C(=O)OC)CCCC12OCCO2
94.2 µM: [9]
inactive: [1] > 100 µM | [2] > 100 µM | [3] > 100 µM | [4] > 100 µM | [5] > 100 µM | [6] > 100 µM | [7] > 100 µM | [8] 68.5 µM | [10] > 100 µM | [11] > 100 µM | [12] > 100 µM | [13] > 100 µM | [14] > 100 µM | [15] > 100 µM

C=C1C(=O)OC2(C)C3CCC(C3)C12 (stereo not given)
60.7 µM: [9]
inactive: [1] 54.5 µM | [2] 30.1 µM | [3] 47.1 µM | [4] 98.2 µM | [6] 57.8 µM | [7] > 100 µM | [8] 29.6 µM | [11] > 100 µM | [12] > 100 µM | [13] > 100 µM | [14] 36 µM | [15] > 100 µM

[C-]#[N+]C1(C(=O)OCC)CC1
> 100 µM: [9]
inactive: [1] > 100 µM | [3] > 100 µM | [4] > 100 µM | [5] > 100 µM | [16] > 100 µM | [17] > 100 µM | [6] > 100 µM | [18] > 100 µM | [8] > 100 µM | [10] > 100 µM | [11] > 100 µM | [12] > 100 µM | [13] > 100 µM | [14] > 100 µM | [15] > 100 µM

CCCCCCCCCCCCC(SCCNC(=O)CCNC(=O)C(O)C(C)(C)COP(=O)(O)OP(=O)(O)OCC1OC(n2cnc3c(N)ncnc32)C(O)C1OP(=O)(O)O)C(=O)NCC(N)=O (stereo not given)
inactive: [1] > 100 µM | [3] 2.6 µM | [4] 52.2 µM | [5] > 100 µM | [6] 40.1 µM | [7] 18.6 µM | [10] > 100 µM | [11] 56.6 µM | [12] > 100 µM | [13] > 100 µM | [14] > 100 µM | [15] > 100 µM
> 100 µM: [9]

CCOc1ccc(NC(=O)CC2SC(Nc3ccc(Cl)cc3)=NC2=O)cc1 (stereo not given)
95.3 µM: [9]
inactive: [1] > 100 µM | [2] 21.5 µM | [3] 29.8 µM | [4] > 100 µM | [5] 44.8 µM | [6] > 100 µM | [7] > 100 µM | [10] > 100 µM | [11] > 100 µM | [12] > 100 µM | [13] > 100 µM | [14] 49.7 µM | [15] > 100 µM

CS/C(=N/S(=O)(=O)c1ccc(Cl)cc1)NCCCN/C(=N\S(=O)(=O)c1ccc(Cl)cc1)SC
7.76 µM: [9]
inactive: [1] 3.56 µM | [2] 23.3 µM | [3] 15.8 µM | [4] 64 µM | [5] 8.43 µM | [16] 4.62 µM | [17] 9.42 µM | [6] 5.08 µM | [19] 6.21 µM | [7] 31.1 µM | [8] 4.34 µM | [10] 6.15 µM | [11] 12.1 µM | [12] 12.7 µM | [13] 25.2 µM | [14] 19.8 µM | [15] 24.8 µM
